# Assays:
# [1] = Brain penetrance: plasma and CSF pharmacokinetics after single oral doses in dogs; assay type: in vivo, dog; conditions: dog, PLASMA LEVELS
# Description: CSF bathes the central nervous system and sits on the inside of the blood brain barrier. Although a centrally-acting drug will still need to penetrate brain tissue to exert an effect, quantification of drug in CSF may provide a gross estimate of brain-penetrance.
# in vivo [2] = conditions: rat, po
# Experimental: (§1) Three studies were performed to investigate the pharmacokinetics of oral administration of a scyllo-cyclohexanehexyl (Table 1):
# Plasma pharmacokinetics (PK) of a scyllo-cyclohexanehexyl in rats was assessed after single oral doses of 15, 50 and 150 mg/kg. After single oral doses in rats, maximum plasma concentration (Cmax) and exposure (AUC0-t) values increased proportionally with dose level of the scyllo-cyclohexanehexyl. Other parameters were unchanged with dose level. The scyllo-cyclohexanehexyl was absorbed rapidly, with mean tmax observed between 1.0 and 2.2 hours post-dose. […] Estimates of mean residence time (MRT) were consistent. Volumes of distribution (Vdss) were large, indicating wide distribution of scyllo-cyclohexanehexyl in rats.
# in vivo [3] = conditions: dog; for AUC(0-inf) / AUC(0-t) / CL/F / Cmax / MRT / Tmax / VdSS / half-life: po
# Experimental: Plasma PK of a scyllo-cyclohexanhexyl in dogs was assessed after 14 days oral dosing of 15, 50 and 150 mg/kg, administered twice daily. As on Day 1 of this study Cmax and AUC values increased proportionally with dose level of scyllo-cyclohexanehexyl. However, dose-normalised exposures appeared to decrease with dose. This contrasts with positive trend observed after acute exposure. […] As for single doses, the scyllo-cyclohexanehexyl was absorbed rapidly, with tmax observed between 1.1 and 1.8 hours post-dose. […] Estimates of MRT were consistent. The Vdss and Cl/F values were similar for all dose levels.
# in vivo [4] = conditions: dog, po
# Experimental: as §1
# Two studies have investigated the single dose PK of oral administration of a scyllo-cyclohexanehexyl in dogs. The 14 day study investigated 18 animals. On Day 1 of this study Cmax and AUC values increased proportionally with dose level of a scyllo-cyclohexanehexyl. […] The extensive brain penetrance of the scyllo-cyclohexanhexyl (see below) may be relevant in this regard.
smiles,measurement,setting,value
"OC1C(O)C(O)C(O)C(O)C1O (centres unmarked) [AZD-103, scyllo-inositol]",Tmax,[1]; single oral dose 20 mg/kg,2.8 ± 2.2 h
same,AUC(0-inf),[1]; single oral dose 80 mg/kg,255 ± 58.6 µg·h/mL
same,AUC(0-t),[1]; single oral dose 80 mg/kg,250 ± 59.3 µg·h/mL
same,Tmax,[1]; single oral dose 80 mg/kg,2.3 ± 1.3 h
same,AUC(0-inf),[1]; single oral dose 240 mg/kg,528 ± 74.6 µg·h/mL
same,AUC(0-t),[1]; single oral dose 240 mg/kg,514.5 ± 0.3 µg·h/mL
same,Cmax,[1]; single oral dose 240 mg/kg,101 ± 17.8 µg/mL
same,Tmax,[1]; single oral dose 240 mg/kg,2.3 ± 1.5 h
same,AUC(0-inf),in vivo [2]; 15 mg/kg,41.9 ± 11.9 µg·h/mL
same,AUC(0-t),in vivo [2]; 15 mg/kg,39.7 ± 11.3 µg·h/mL
same,CL/F,in vivo [2]; 15 mg/kg,12.8 mL/min/kg
same,Cmax,in vivo [2]; 15 mg/kg,13.2 ± 2 µg/mL
same,MRT,in vivo [2]; 15 mg/kg,3.7 ± 0.5 h
same,Tmax,in vivo [2]; 15 mg/kg,1 h
same,Vd,in vivo [2]; 15 mg/kg,2.82 L/kg
same,half-life,in vivo [2]; 15 mg/kg,2.7 ± 0.6 h
same,kel,in vivo [2]; 15 mg/kg,0.27 ± 0.07 h⁻¹
same,AUC(0-inf),in vivo [2]; 50 mg/kg,169 ± 31.8 µg·h/mL
same,AUC(0-t),in vivo [2]; 50 mg/kg,163 ± 29 µg·h/mL
same,CL/F,in vivo [2]; 50 mg/kg,10.1 mL/min/kg
same,Cmax,in vivo [2]; 50 mg/kg,45.3 ± 7.1 µg/mL
same,MRT,in vivo [2]; 50 mg/kg,3.6 ± 0.6 h
same,Tmax,in vivo [2]; 50 mg/kg,1.5 ± 0.5 h
same,Vd,in vivo [2]; 50 mg/kg,2.13 L/kg
same,half-life,in vivo [2]; 50 mg/kg,2.4 ± 0.2 h
same,kel,in vivo [2]; 50 mg/kg,0.29 ± 0.02 h⁻¹
same,AUC(0-inf),in vivo [2]; 150 mg/kg,552 ± 154 µg·h/mL
same,AUC(0-t),in vivo [2]; 150 mg/kg,537 ± 154 µg·h/mL
same,CL/F,in vivo [2]; 150 mg/kg,9.55 mL/min/kg
same,Cmax,in vivo [2]; 150 mg/kg,131 ± 54.8 µg/mL
same,MRT,in vivo [2]; 150 mg/kg,3.9 ± 0.7 h
same,Tmax,in vivo [2]; 150 mg/kg,2.2 ± 1.5 h
same,Vd,in vivo [2]; 150 mg/kg,2.24 L/kg
same,half-life,in vivo [2]; 150 mg/kg,2.1 ± 0.2 h
same,kel,in vivo [2]; 150 mg/kg,0.33 ± 0.03 h⁻¹
same,kel,in vivo [3]; 15 mg/kg,0.2 ± 0.08 h⁻¹
same,kel,in vivo [3]; 50 mg/kg,0.2 ± 0.1 h⁻¹
same,kel,in vivo [3]; 150 mg/kg,0.3 ± 0.04 h⁻¹
same,AUC(0-inf),in vivo [3]; 15 mg/kg,95.2 ± 18.6 µg·h/mL
same,AUC(0-t),in vivo [3]; 15 mg/kg,75.2 ± 9.4 µg·h/mL
same,CL/F,in vivo [3]; 15 mg/kg,0.698 mL/min/kg
same,Cmax,in vivo [3]; 15 mg/kg,16.4 ± 4.5 µg/mL
same,MRT,in vivo [3]; 15 mg/kg,7.4 ± 1.5 h
same,Tmax,in vivo [3]; 15 mg/kg,1.7 ± 0.5 h
same,VdSS,in vivo [3]; 15 mg/kg,0.3017 ± 0.0419 L/kg
same,half-life,in vivo [3]; 15 mg/kg,4.7 ± 2 h
same,AUC(0-inf),in vivo [3]; 50 mg/kg,262 ± 52.4 µg·h/mL
same,AUC(0-t),in vivo [3]; 50 mg/kg,232 ± 50.2 µg·h/mL
same,CL/F,in vivo [3]; 50 mg/kg,0.86 mL/min/kg
same,Cmax,in vivo [3]; 50 mg/kg,59.4 ± 13 µg/mL
same,MRT,in vivo [3]; 50 mg/kg,5.3 ± 1.2 h
same,Tmax,in vivo [3]; 50 mg/kg,1.1 ± 0.5 h
same,VdSS,in vivo [3]; 50 mg/kg,0.2726 ± 0.1217 L/kg
same,half-life,in vivo [3]; 50 mg/kg,3.8 ± 1.2 h
same,AUC(0-inf),in vivo [3]; 150 mg/kg,557 ± 133 µg·h/mL
same,AUC(0-t),in vivo [3]; 150 mg/kg,523 ± 123 µg·h/mL
same,CL/F,in vivo [3]; 150 mg/kg,1.2 mL/min/kg
same,Cmax,in vivo [3]; 150 mg/kg,121 ± 26.7 µg/mL
same,MRT,in vivo [3]; 150 mg/kg,4.6 ± 0.4 h
same,Tmax,in vivo [3]; 150 mg/kg,1.8 ± 0.4 h
same,VdSS,in vivo [3]; 150 mg/kg,0.3321 ± 0.0881 L/kg
same,half-life,in vivo [3]; 150 mg/kg,2.9 ± 0.6 h
same,AUC(0-inf),in vivo [4]; 15 mg/kg,23.8 ± 4.5 µg·h/mL
same,AUC(0-t),in vivo [4]; 15 mg/kg,22.6 ± 4.5 µg·h/mL
same,CL/F,in vivo [4]; 15 mg/kg,3.04 mL/min/kg
same,Cmax,in vivo [4]; 15 mg/kg,10 ± 2.5 µg/mL
same,MRT,in vivo [4]; 15 mg/kg,3.5 ± 0.8 h
same,Tmax,in vivo [4]; 15 mg/kg,1.7 ± 0.5 h
same,VdSS,in vivo [4]; 15 mg/kg,0.6325 ± 0.2371 L/kg
same,half-life,in vivo [4]; 15 mg/kg,2 ± 0.8 h
same,kel,in vivo [4]; 15 mg/kg,0.4 ± 0.2 h⁻¹
same,AUC(0-inf),in vivo [4]; 50 mg/kg,116 ± 22.8 µg·h/mL
same,AUC(0-t),in vivo [4]; 50 mg/kg,114 ± 22.9 µg·h/mL
same,CL/F,in vivo [4]; 50 mg/kg,2.07 mL/min/kg
same,Cmax,in vivo [4]; 50 mg/kg,47.4 ± 12.7 µg/mL
same,MRT,in vivo [4]; 50 mg/kg,2.9 ± 0.3 h
same,Tmax,in vivo [4]; 50 mg/kg,1.2 ± 0.4 h
same,VdSS,in vivo [4]; 50 mg/kg,0.3659 ± 0.1219 L/kg
same,half-life,in vivo [4]; 50 mg/kg,2.1 ± 0.3 h
same,kel,in vivo [4]; 50 mg/kg,0.3 ± 0.04 h⁻¹
same,AUC(0-inf),in vivo [4]; 150 mg/kg,455 ± 121 µg·h/mL
same,AUC(0-t),in vivo [4]; 150 mg/kg,450 ± 118 µg·h/mL
same,CL/F,in vivo [4]; 150 mg/kg,1.56 mL/min/kg
same,Cmax,in vivo [4]; 150 mg/kg,124 ± 22.7 µg/mL
same,MRT,in vivo [4]; 150 mg/kg,3.3 ± 0.3 h
same,Tmax,in vivo [4]; 150 mg/kg,2.2 ± 0.4 h
same,VdSS,in vivo [4]; 150 mg/kg,0.3074 ± 0.0744 L/kg
same,half-life,in vivo [4]; 150 mg/kg,1.7 ± 0.2 h
same,kel,in vivo [4]; 150 mg/kg,0.4 ± 0.05 h⁻¹
